Experimental data: publication PMC8600679, “Substituted Two- to Five-Ring Polycyclic Aromatic Compounds Are Potent Agonists of Atlantic Cod (Gadus morhua) Aryl Hydrocarbon Receptors Ahr1a and Ahr2a” (Environmental Science & Technology, 2021)
Read-outs that look alike come from different tables or passages of the source.

Tests used:
Atlantic cod Ahr1a = Atlantic cod Ahr1a (Gadus morhua, UniProt A0A6H1Z2L5); assay: cell-based; conditions: for Ahr1a REP25: EC25 of TCDD divided by concentration of PAC giving 25% of TCDD response; for Efficacy compared to TCDD with Ahr1a: Welch's t-test, Supporting Table S6; for Activation of Ahr1a (agonist or not): in vitro transactivation
Atlantic cod Ahr2a = molecular target: T1, Atlantic cod Ahr2a (Gadus morhua, UniProt A0A6H1Z3G8); assay: cell-based; conditions: for Ahr2a REP25: EC25 of TCDD divided by concentration of PAC giving 25% of TCDD response; for Efficacy compared to TCDD via Ahr2a: Welch's t-test, Supporting Table S6; for Activation of Ahr2a (agonist or not): in vitro transactivation; for fold higher REP25 with Ahr2a compared to Ahr1a: Ahr2a versus Ahr1a
T1 sequence (A0A6H1Z3G8 1-1127): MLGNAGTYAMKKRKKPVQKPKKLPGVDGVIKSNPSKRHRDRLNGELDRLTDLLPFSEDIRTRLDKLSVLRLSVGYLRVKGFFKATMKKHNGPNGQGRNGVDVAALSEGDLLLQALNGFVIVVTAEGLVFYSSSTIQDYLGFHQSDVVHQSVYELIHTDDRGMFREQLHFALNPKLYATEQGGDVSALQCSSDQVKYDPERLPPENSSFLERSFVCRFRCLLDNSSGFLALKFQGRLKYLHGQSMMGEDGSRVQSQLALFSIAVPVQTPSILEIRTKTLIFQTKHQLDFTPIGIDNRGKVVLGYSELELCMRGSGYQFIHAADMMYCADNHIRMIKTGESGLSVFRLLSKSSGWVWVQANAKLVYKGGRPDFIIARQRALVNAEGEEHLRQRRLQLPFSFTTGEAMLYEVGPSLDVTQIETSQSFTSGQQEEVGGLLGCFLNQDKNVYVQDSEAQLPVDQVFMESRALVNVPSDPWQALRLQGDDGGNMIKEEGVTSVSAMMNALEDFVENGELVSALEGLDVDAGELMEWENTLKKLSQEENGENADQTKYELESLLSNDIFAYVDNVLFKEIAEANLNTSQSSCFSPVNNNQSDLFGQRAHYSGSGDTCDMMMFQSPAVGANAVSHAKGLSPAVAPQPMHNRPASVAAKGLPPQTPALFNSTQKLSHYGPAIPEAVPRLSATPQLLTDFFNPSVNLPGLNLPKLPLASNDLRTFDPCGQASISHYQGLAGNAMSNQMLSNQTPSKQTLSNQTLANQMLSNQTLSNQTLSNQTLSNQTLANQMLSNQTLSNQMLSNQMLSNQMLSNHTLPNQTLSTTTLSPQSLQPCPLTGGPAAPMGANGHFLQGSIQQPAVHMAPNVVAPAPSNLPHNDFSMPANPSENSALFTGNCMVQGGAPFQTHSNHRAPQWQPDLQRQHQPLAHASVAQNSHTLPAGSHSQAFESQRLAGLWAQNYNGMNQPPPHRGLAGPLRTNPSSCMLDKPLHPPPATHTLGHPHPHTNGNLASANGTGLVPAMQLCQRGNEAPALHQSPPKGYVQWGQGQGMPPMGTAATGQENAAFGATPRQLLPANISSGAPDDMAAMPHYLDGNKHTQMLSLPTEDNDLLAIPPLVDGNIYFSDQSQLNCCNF

COS-7 cells = assay: Resazurin reduction viability assay; type: cell-based, simian; conditions: highest concentrations used; relative to 0.5% DMSO solvent control
Procedure: COS-7 simian kidney cells were seeded onto 96 well plates (10 000 cells/well) in Dulbecco’s modified Eagle’s medium (DMEM) with phenol red, supplemented with 10% fetal bovine serum (FBS), 4 mM L-glutamate, 1 mM sodium pyruvate, and 100 U/mL penicillin–streptomycin (Merck KGaA, Darmstadt, Germany), and cultivated at 37 °C with 5% CO2 for 24 h. Cells were transiently co-transfected with a eukaryotic expression plasmid (pcDNA3.1/Zeo(+), 31 ng/well), pcDNA3.1/Zeo(+)-based plasmids encoding gmAhr1a or gmAhr2a (3 ng/well), gmArnt1 (6 ng/well),[37] a luciferase reporter plasmid containing four DREs (pGudLuc6.1, 30 ng/well), and a β-galactosidase normalization plasmid (pCMV-βGAL, 30 ng/well),[45],[46] using a Mirus TransIT LT-1 transfection reagent according to the recommendations of the supplier. COS-7 cells were seeded and cultivated in DMEM (4500 mg/L glucose), supplemented with 10% FBS, 1 mM sodium pyruvate, and 4 mM L-glutamine. In the exposure medium, FBS was substituted with 10% charcoal-stripped FBS (VWR International, Radnor). To create the exposure media with the highest test concentration, compounds solved in dimethyl sulfoxide (DMSO) were diluted 1:200 in exposure medium, resulting in exposure media with 1× test compound and 0.5% DMSO. The highest concentration exposure media were serially diluted five times (1:2 for the first dilution, then 1:5) in exposure medium supplemented with 0.5% DMSO. Following transfection, cells were incubated in exposure media containing PACs or solvent control (0.5% DMSO) for 24 h. Reporter gene assays were repeated at least three times and with three technical replicates per exposure. TCDD (30 pM to 100 nM) was used as a known agonist in each experiment. Absorbance and luminescence measurements were performed on an EnSpire Multimode plate reader (PerkinElmer, Waltham, MA). While no wavelength filtering was used to measure firefly luciferase activity by luminescence, absorbance measurements to quantify β-galactosidase activity were performed at 420 nm wavelength. The viability of exposed cells was evaluated using the resazurin reduction assay as previously described.[47],[48]
Recorded luminescence was normalized for variation in transfection efficiencies using β-galactosidase enzyme activity. The difference in normalized light units measured in lysates from exposed cells to solvent-exposed cells was calculated and expressed relative to the maximum response in TCDD-exposed cells. Response curves were prepared by nonlinear regression analyses in Prism v7 and used for the determination of half-maximal effective concentration values (EC50) and maximum efficacies (Emax). EC50 values were only determined for compounds that produced a sigmoidal concentration–response curve. Relative effect potencies 25 (REP25) were determined by dividing the EC25 of TCDD by the concentration of PAC necessary to produce a response equal to 25% of the response of TCDD with gmAhrs, essentially as described by Villeneuve et al. and Lam et al.[49],[50] The D’Agostino–Pearson (Ahr activation data) or Kolmogorov–Smirnov (viability data) normality tests were used to confirm the normal distribution of the data. One-way analysis of variance (ANOVA) and Dunnett′s test were used to compare responses at different concentrations of compounds and solvent control mediated via the same Ahr, in addition to comparing metabolic activity in PAC-exposed cells and cells exposed to solvent control in the resazurin reduction assay. Welch′s t-test was used to compare the maximum Ahr-mediated response and potency (Emax and EC50) between Ahr1a or Ahr2a produced by the same test compound (Prism v7).

[1] = set-up: method as in PMID 29505926; conditions: cited from earlier work; for toxic equivalent factor (TEF): toxic potential relative to the toxicity of BAP
[2] = Ahr1a EC50 (nM), COS-7 cells, 24 h exposure
[3] = COS-7, read-out: Ahr1a Relative Emax (%)
[4] = Ahr2a EC50 (nM), COS-7 cells, 24 h exposure
[5] = COS-7, read-out: Ahr2a Relative Emax (%)
[6] = Potency (EC50, nM) Ahr2a, Supplementary Table S5
[7] = percent of maximum efficacy determined for TCDD, COS-7 cells, 24 h exposure, None = no agonistic response significantly different from solvent
[8] = COS-7 cells, 24 h exposure, read-out: Ahr1a EC50
[9] = Supplementary Table S5, read-out: Potency (EC50, nM) Ahr1a
[10] = percent of maximum efficacy determined for TCDD, COS-7 cells, 24 h exposure, None = no agonistic response significantly different from solvent, read-out: Ahr1a Relative Emax (%)
[11] = COS-7 cells, 24 h exposure, read-out: Ahr2a EC50
[12] = Supplementary Table S5, read-out: Potency (EC50, nM) Ahr2a
[13] = percent of maximum efficacy determined for TCDD, COS-7 cells, 24 h exposure, None = no agonistic response significantly different from solvent, read-out: Ahr2a Relative Emax (%)

Atlantic cod Ahr1a, sequence (A0A6H1Z2L5 1-957): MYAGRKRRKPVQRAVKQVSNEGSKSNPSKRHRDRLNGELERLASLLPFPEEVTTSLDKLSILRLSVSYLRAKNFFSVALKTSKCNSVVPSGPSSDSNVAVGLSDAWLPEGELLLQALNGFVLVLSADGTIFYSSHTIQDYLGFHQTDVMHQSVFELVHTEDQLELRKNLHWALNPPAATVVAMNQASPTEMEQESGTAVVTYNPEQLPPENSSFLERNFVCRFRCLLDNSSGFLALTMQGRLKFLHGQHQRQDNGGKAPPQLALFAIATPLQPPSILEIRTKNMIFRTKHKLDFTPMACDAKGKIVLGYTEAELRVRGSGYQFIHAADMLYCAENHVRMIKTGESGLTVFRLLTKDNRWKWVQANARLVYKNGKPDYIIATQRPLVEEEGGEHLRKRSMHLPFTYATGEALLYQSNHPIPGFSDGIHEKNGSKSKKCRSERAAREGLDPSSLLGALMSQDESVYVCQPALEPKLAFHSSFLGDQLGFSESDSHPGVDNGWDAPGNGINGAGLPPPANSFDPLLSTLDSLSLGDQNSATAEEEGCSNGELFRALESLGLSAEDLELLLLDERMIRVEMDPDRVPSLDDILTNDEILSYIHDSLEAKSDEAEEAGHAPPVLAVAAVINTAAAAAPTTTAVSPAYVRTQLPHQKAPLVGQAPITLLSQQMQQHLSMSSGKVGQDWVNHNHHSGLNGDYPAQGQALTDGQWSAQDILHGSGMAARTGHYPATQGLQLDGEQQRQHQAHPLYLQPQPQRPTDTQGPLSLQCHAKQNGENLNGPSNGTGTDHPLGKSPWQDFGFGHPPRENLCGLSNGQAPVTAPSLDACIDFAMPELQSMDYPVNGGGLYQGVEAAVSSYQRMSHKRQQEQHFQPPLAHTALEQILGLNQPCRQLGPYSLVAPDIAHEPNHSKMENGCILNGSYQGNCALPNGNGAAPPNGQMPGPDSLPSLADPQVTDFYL
Atlantic cod Ahr1a, sequence (A0A8C5CZZ9 1-645 partner): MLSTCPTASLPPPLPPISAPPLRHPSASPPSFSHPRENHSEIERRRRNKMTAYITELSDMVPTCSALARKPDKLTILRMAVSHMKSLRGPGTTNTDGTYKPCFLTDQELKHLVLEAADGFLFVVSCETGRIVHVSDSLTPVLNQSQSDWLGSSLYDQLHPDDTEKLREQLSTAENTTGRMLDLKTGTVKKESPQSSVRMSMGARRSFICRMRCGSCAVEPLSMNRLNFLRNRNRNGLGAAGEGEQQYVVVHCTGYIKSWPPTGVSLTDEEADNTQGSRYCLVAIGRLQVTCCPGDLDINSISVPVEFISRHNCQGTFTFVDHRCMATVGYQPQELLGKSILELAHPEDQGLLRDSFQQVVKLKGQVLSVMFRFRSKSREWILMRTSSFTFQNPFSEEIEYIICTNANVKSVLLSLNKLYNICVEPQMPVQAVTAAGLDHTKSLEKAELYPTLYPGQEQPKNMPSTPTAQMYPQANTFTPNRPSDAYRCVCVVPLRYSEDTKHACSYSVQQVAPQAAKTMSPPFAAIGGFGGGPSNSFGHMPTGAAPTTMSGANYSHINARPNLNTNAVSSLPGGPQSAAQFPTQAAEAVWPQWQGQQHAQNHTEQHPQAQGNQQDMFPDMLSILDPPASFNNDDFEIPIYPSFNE

SMILES	Ahr1a REP25 (Atlantic cod Ahr1a)	Efficacy compared to TCDD with Ahr1a (Atlantic cod Ahr1a)	Ahr2a REP25 (Atlantic cod Ahr2a)	Efficacy compared to TCDD via Ahr2a (Atlantic cod Ahr2a)	Metabolic activity (cell viability) of exposed COS-7 cells (COS-7 cells)	EC50 (Atlantic cod Ahr1a; [8]) [nM]	EC50 (Atlantic cod Ahr1a; [9]) [nM]	Emax (Atlantic cod Ahr1a; [10]) [%]	EC50 (Atlantic cod Ahr2a; [11]) [nM]	EC50 (Atlantic cod Ahr2a; [12]) [nM]	Emax (Atlantic cod Ahr2a; [13]) [%]	fold higher REP25 with Ahr2a compared to Ahr1a (Atlantic cod Ahr2a)	also measured
Oc1cccc2c1ccc1c3ccccc3ccc21 [1-COH, Chrysene-1-ol]	0.0045	higher efficacies (superefficacies) than TCDD	0.0077	lower efficacies in comparison to TCDD	slight reduction in metabolic activities	–	–	–	–	–	–	–	EC50 (Atlantic cod Ahr1a; [2]): 485 nM; Emax (Atlantic cod Ahr1a; [3]): 116%; Emax (Atlantic cod Ahr1a; COS-7, read-out: Efficacy (Emax, %) Ahr1a): 116%; EC50 (Atlantic cod Ahr1a; Potency (EC50, nM) Ahr1a, Supplementary Table S5): 485 nM; EC50 (Atlantic cod Ahr2a; [4]): 633 nM; Emax (Atlantic cod Ahr2a; [5]): 72.8%; EC50 (Atlantic cod Ahr2a; [6]): 633 nM
Cc1cccc2c1ccc1c3ccccc3ccc21 [1-MC, 1-Methylchrysene]	0.0070	lower efficacies than TCDD	0.022	lower efficacies in comparison to TCDD	–	–	–	–	–	–	–	–	EC50 (Atlantic cod Ahr1a; [2]): 175 nM; Emax (Atlantic cod Ahr1a; [3]): 45.8%; EC50 (Atlantic cod Ahr2a; [4]): 172 nM; Emax (Atlantic cod Ahr2a; [5]): 43.6%; EC50 (Atlantic cod Ahr2a; [6]): 172 nM; agonistic potential, times higher than CHR ([1]; from TEF values): 10 times; toxic equivalent factor (TEF) [1]: 0.1
Cc1cc2ccc3ccccc3c2cc1C [2,3-DMP, 2,3-Dimethylphenanthrene]	–	–	–	–	slight reduction in metabolic activities	–	–	–	–	–	–	–	Activation of Ahr1a (agonist or not) (Atlantic cod Ahr1a): did not activate; Ahr1a Relative Emax (%) (Atlantic cod Ahr1a; [7]): None; Activation of Ahr2a (agonist or not) (Atlantic cod Ahr2a): did not activate; Ahr2a Relative Emax (%) (Atlantic cod Ahr2a; [7]): None
Oc1ccc2ccc3c4ccccc4ccc3c2c1 [3-COH, Chrysene-3-ol]	0.00257	lower efficacies than TCDD	0.0099	lower efficacies in comparison to TCDD	slight reduction in metabolic activities	345	345	86.5	275	274	66.1	–	–
COc1ccc2ccc3c4ccccc4ccc3c2c1 [3-MOC, 3-Methoxychrysene]	0.0056	lower efficacies than TCDD	0.0588	lower efficacies in comparison to TCDD	slight reduction in metabolic activities	195	–	66.6	98.6	–	80.8	5- to 10 fold	–
COc1cccc2ccc3c4ccccc4ccc3c12 [4-MOC, 4-Methoxychrysene]	0.033	lower efficacies than TCDD	0.206	–	slight reduction in metabolic activities	43.8	–	83.8	30.9	–	93.7	5- to 10 fold	–
Cc1cc2c3ccccc3ccc2c2ccccc12 [6-MC, 6-Methylchrysene]	0.00064	efficacies similar to that of TCDD	0.0031	–	slight reduction in metabolic activities	–	3540	90.6	2260	88.8	89.8	5- to 10 fold	–
c1ccc2c(c1)ccc1c3ccccc3ccc21 [CHR, Chrysene]	0.00052	lower efficacies than TCDD	–	lower efficacies in comparison to TCDD	–	481	481	40.8	–	3440	–	–	Activation of Ahr1a (agonist or not) (Atlantic cod Ahr1a): solely activate Ahr1a; Emax (Atlantic cod Ahr2a; COS-7, Supplementary Table S5, read-out: Efficacy (Emax, %) Ahr2a): 3.6%; Activation of Ahr2a (agonist or not) (Atlantic cod Ahr2a): solely activate Ahr1a; Ahr2a Relative Emax (%) (Atlantic cod Ahr2a; [7]): None; toxic equivalent factor (TEF) [1]: 0.01
